Measured values reported in patent US10710992B2, “Substituted pyridinones as bromodomain inhibitors” (Zenith Epigenetics Ltd., priority 2014, dated 2020).

What was measured:
[1] = tested on: c-myc in Human AML MV4-11 cells; experiment: Inhibition of cMYC expression in cancer cell lines (mRNA, real-time PCR); type: cell-based; details: 3 h, cMYC mRNA normalized to Cyclophilin; for IC50: Homo sapiens
Method: MV4-11 cells (CRL-9591) were plated at a density of 2.5×10^4 cells per well in 96 well U-bottom plates and treated with increasing concentrations of test compound or DMSO (0.1%) in IMDM media containing 10% FBS and penicillin/streptomycin, and incubated for 3 h at 37° C. Triplicate wells were used for each concentration. Cells were pelleted by centrifugation and harvested using the mRNA Catcher PLUS kit according to manufacturer's instructions. The eluted mRNA isolated was then used in a one-step quantitative real-time PCR reaction, using components of the RNA UltraSense™ One-Step Kit (Life Technologies) together with Applied Biosystems TaqMan® primer-probes for cMYC and Cyclophilin. Real-time PCR plates were run on a ViiA™ 7 real time PCR machine (Applied Biosystems), data was analyzed, normalizing the Ct values for cMYC to an internal control, prior to determining the fold expression of each sample, relative to the control.

[2] = molecular target: T1, Brd4 bromodomain 1 (BRD4(1)) (Homo sapiens, UniProt O60885); experiment: Inhibition of tetra-acetylated histone H4 binding to BET bromodomain (HTRF/FRET); details: His-tagged bromodomain 200 nM, tetra-acetylated histone H4 peptide, 2 h room temperature
T1 construct: made in house; host or cells: E. coli BL21(DE3)
Method: Proteins were cloned and overexpressed with a N-terminal 6× His tag, then purified by nickel affinity followed by size exclusion chromatography. Briefly, E. coli BL21(DE3) cells were transformed with a recombinant expression vector encoding N-terminally Nickel affinity tagged bromodomains from Brd2, Brd3, Brd4. Cell cultures were incubated at 37° C. with shaking to the appropriate density and induced overnight with IPTG. The supernatant of lysed cells was loaded onto Ni-IDA column for purification. Eluted protein was pooled, concentrated and further purified by size exclusion chromatography. Fractions representing monomeric protein were pooled, concentrated, aliquoted, and frozen at −80° C. for use in subsequent experiments.
Binding of tetra-acetylated histone H4 and BET bromodomains was confirmed by a Homogenous Time Resolved Fluorescence Resonance Energy Transfer (HTRF®) method. N-terminally His-tagged bromodomains (200 nM) and biotinylated tetra-acetylated historic H4 peptide (25-50 nM, Millipore) were incubated in the presence of Europium Cryptate-labeled streptavidin (Cisbio Cat. #610SAKLB) and XL665-labeled monoclonal anti-His antibody (Cisbio Cat. #61HISXLB) in a white 96 well microtiter plate (Greiner). For inhibition assays, serially diluted test compound was added to these reactions in a 0.2% final concentration of DMSO. Duplicate wells were used for each concentration tested. Final buffer concentrations were 30 mM HEPES pH 7.4, 30 mM NaCl, 0.3 mM CHAPS, 20 mM phosphate pH 7.0, 320 mM KF, 0.08% BSA. After a 2 h incubation at room temperature, fluorescence was measured at 665 and 620 nm with a SynergyH4 plate reader (Biotek). The binding inhibitory activity was shown by a decrease in 665 nm relative to […] fluorescence. IC50 values were determined from a dose response curve.

hIL-6 mRNA = experiment: Inhibition of hIL-6 mRNA transcription in LPS-stimulated U937 cells; type: cell-based; details: Homo sapiens, U-937; PMA-differentiated U937 cells, 1 h pretreatment, LPS 1 ug/mL, 3 h; read-out: IL-6 activity
Method: Human leukemic monocyte lymphoma U937 cells (CRL-1593.2) were plated at a density of 3.2×10^4 cells per well in a 96-well plate in 100 μL RPMI-1640 containing 10% FBS and penicillin/streptomycin, and differentiated into macrophages for 3 days in 60 ng/mL PMA ([…]) at 37° C. in 5% CO2 prior to the addition of compound. The cells were pretreated for 1 h with increasing concentrations of test compound in 0.1% DMSO prior to stimulation with 1 ug/mL lipopolysaccharide from Escherichia coli. Triplicate wells were used for each concentration. The cells were incubated at 37° C., 5% CO2 for 3 h before the cells were harvested. At time of harvest, media was removed and cells were rinsed in 200 μL PBS. Cells were harvested using the mRNA Catcher PLUS kit according to manufacturer's instructions. The eluted mRNA was then used in a one-step quantitative real-time PCR reaction using components of the RNA UltraSense™ One-Step Kit (Life Technologies) together with Applied Biosystems TaqMan® primer-probes for hIL-6 and Cyclophilin. Real-time PCR plates were run on a ViiA™ 7 real time PCR machine (Applied Biosystems), data was analyzed, normalizing the Ct values for hIL-6 to an internal control, prior to determining the fold expression of each sample, relative to the control.

Human AML MV-4-11 cells = experiment: Inhibition of cell proliferation in cancer cell lines (CellTiter Aqueous One); type: cell-based; details: Homo sapiens; MV4-11 cells, 72 h
Method: MV4-11 cells (CRL-9591) were plated at a density of 5×10^4 cells per well in 96 well flat bottom plates and treated with increasing concentrations of test compound or DMSO (0.1%) in IMDM media containing 10% FBS and penicillin/streptomycin. Triplicate wells were used for each concentration and a well containing only media was used as a control. Plates were incubated at 37° C., 5% CO2 for 72 h before adding 20 μL of the CellTiter Aqueous One Solution (Promega) to each well and incubated at 37° C., 5% CO2 for an additional 3-4 h. The absorbance was read at 490 nm in a spectrophotometer and the percentage of cell titer relative to DMSO-treated cells was calculated after correcting for background by subtracting the blank well's signal. IC50 values were calculated using the GraphPad Prism software.

IC50 [2]	IC50 (hIL-6 mRNA)	IC50 (Human AML MV-4-11 cells)	SMILES	IC50 [1]	c-myc activity [1]
≤ 300 nM	300 to 3000 nM	3000 to 30000 nM	Cc1noc(C)c1-c1c[nH]c(=O)c(N[C@@H](C)c2ccccn2)c1 (single isomer, unassigned) [Example 41]	3000 to 30000 nM	–
≤ 300 nM	300 to 3000 nM	300 to 3000 nM	Cc1noc(C)c1-c1c[nH]c(=O)c(N[C@H](C)c2ccccn2)c1 (single isomer, unassigned) [Example 42]	–	Not Active
300 to 3000 nM	300 to 3000 nM	3000 to 30000 nM	Cc1noc(C)c1-c1c[nH]c(=O)c(Nc2cccc(F)c2)c1 [Example 3, 5-(3,5-dimethylisoxazol-4-yl)-3-((3-fluorophenyl)amino)pyridin-2(1H)-one]	300 to 3000 nM	–
300 to 3000 nM	–	–	Cc1noc(C)c1-c1c[nH]c(=O)c(Oc2ccccc2)c1 [Example 5, 5-(3,5-dimethylisoxazol-4-yl)-3-phenoxypyridin-2(1H)-one]	–	–
≤ 300 nM	300 to 3000 nM	300 to 3000 nM	Cc1cccc(Nc2cc(-c3c(C)noc3C)c[nH]c2=O)c1 [Example 6, 5-(3,5-dimethylisoxazol-4-yl)-3-(m-tolylamino)pyridin-2(1H)-one]	–	–
300 to 3000 nM	–	3000 to 30000 nM	COc1cccc(Nc2cc(-c3c(C)noc3C)c[nH]c2=O)c1 [Example 7, 5-(3,5-dimethylisoxazol-4-yl)-3-((3-methoxyphenyl)amino)pyridin-2(1H)-one]	–	–
≤ 300 nM	300 to 3000 nM	3000 to 30000 nM	Cc1noc(C)c1-c1c[nH]c(=O)c(NCc2ccc(Cl)cc2)c1 [Example 8, 3-((4-chlorobenzyl)amino)-5-(3,5-dimethylisoxazol-4-yl)pyridin-2(1H)-one]	3000 to 30000 nM	–
≤ 300 nM	300 to 3000 nM	3000 to 30000 nM	Cc1noc(C)c1-c1c[nH]c(=O)c(NCc2ccc(C#N)cc2)c1 [Example 9, 4-(((5-(3,5-dimethylisoxazol-4-yl)-2-oxo-1,2-dihydropyridin-3-yl)amino)methyl)benzonitrile]	300 to 3000 nM	–
300 to 3000 nM	300 to 3000 nM	3000 to 30000 nM	Cc1noc(C)c1-c1c[nH]c(=O)c(NCc2ccc(C(F)(F)F)cc2)c1 [Example 10, 5-(3,5-dimethylisoxazol-4-yl)-3-((4-(trifluoromethyl)benzyl)amino)pyridin-2(1H)-one]	3000 to 30000 nM	–
300 to 3000 nM	300 to 3000 nM	3000 to 30000 nM	Cc1noc(C)c1-c1c[nH]c(=O)c(NCc2ccncc2)c1 [Example 11, 5-(3,5-dimethylisoxazol-4-yl)-3-((pyridin-4-ylmethyl)amino)pyridin-2(1H)-one]	3000 to 30000 nM	–
≤ 300 nM	300 to 3000 nM	300 to 3000 nM	Cc1noc(C)c1-c1c[nH]c(=O)c(NCc2ccc(Cl)s2)c1 [Example 12, 3-(((5-chlorothiophen-2-yl)methyl)amino)-5-(3,5-dimethylisoxazol-4-yl)pyridin-2(1H)-one]	–	–
≤ 300 nM	300 to 3000 nM	300 to 3000 nM	Cc1noc(C)c1-c1c[nH]c(=O)c(NCc2ccsc2)c1 [Example 13, 5-(3,5-dimethylisoxazol-4-yl)-3-((thiophen-3-ylmethyl)amino)pyridin-2(1H)-one]	300 to 3000 nM	–
300 to 3000 nM	–	–	Cc1noc(C)c1-c1c[nH]c(=O)c(Nc2ccccc2F)c1 [Example 15, 5-(3,5-dimethylisoxazol-4-yl)-3-((2-fluorophenyl)amino)pyridin-2(1H)-one]	–	–
300 to 3000 nM	–	–	Cc1noc(C)c1-c1c[nH]c(=O)c(Nc2ccc(F)cc2)c1 [Example 16, 5-(3,5-dimethylisoxazol-4-yl)-3-((4-fluorophenyl)amino)pyridin-2(1H)-one]	–	–
300 to 3000 nM	–	3000 to 30000 nM	Cc1noc(C)c1-c1c[nH]c(=O)c(NC(C)c2ccc(Cl)cc2)c1 (centres unmarked) [Example 18, 3-((1-(4-chlorophenyl)ethyl)amino)-5-(3,5-dimethylisoxazol-4-yl)pyridin-2(1H)-one]	300 to 3000 nM	–
300 to 3000 nM	–	3000 to 30000 nM	Cc1noc(C)c1-c1c[nH]c(=O)c(NCc2ccc(Br)cc2)c1 [Example 19, 3-((4-bromobenzyl)amino)-5-(3,5-dimethylisoxazol-4-yl)pyridin-2(1H)-one]	3000 to 30000 nM	–
300 to 3000 nM	–	–	Cc1noc(C)c1-c1c[nH]c(=O)c(NCCc2ccccc2)c1 [Example 22, 5-(3,5-dimethylisoxazol-4-yl)-3-(phenethylamino)pyridin-2(1H)-one]	–	–
≤ 300 nM	300 to 3000 nM	–	Cc1noc(C)c1-c1c[nH]c(=O)c(NCc2cccnc2)c1 [Example 23, 5-(3,5-dimethylisoxazol-4-yl)-3-((pyridin-3-ylmethyl)amino)pyridin-2(1H)-one]	300 to 3000 nM	–
300 to 3000 nM	–	–	Cc1noc(C)c1-c1c[nH]c(=O)c(OCc2ccc(C#N)cc2)c1 [Example 25, 4-(((5-(3,5-dimethylisoxazol-4-yl)-2-oxo-1,2-dihydropyridin-3-yl)oxy)methyl)benzonitrile]	–	–
300 to 3000 nM	–	–	Cc1noc(C)c1-c1c[nH]c(=O)c(OCc2ccccn2)c1 [Example 26, 5-(3,5-dimethylisoxazol-4-yl)-3-(pyridin-2-ylmethoxy)pyridin-2(1H)-one]	–	–
300 to 3000 nM	–	–	Cc1noc(C)c1-c1c[nH]c(=O)c(Nc2ccc(C#N)cc2)c1 [Example 28, 4-((5-(3,5-dimethylisoxazol-4-yl)-2-oxo-1,2-dihydropyridin-3-yl)amino)benzonitrile]	–	–
300 to 3000 nM	–	3000 to 30000 nM	Cc1noc(C)c1-c1c[nH]c(=O)c(Nc2ccc(Cl)cc2)c1 [Example 29, 3-((4-chlorophenyl)amino)-5-(3,5-dimethylisoxazol-4-yl)pyridin-2(1H)-one]	3000 to 30000 nM	–
300 to 3000 nM	–	–	Cc1noc(C)c1-c1c[nH]c(=O)c(NCc2cnoc2)c1 [Example 31, 5-(3,5-dimethylisoxazol-4-yl)-3-((isoxazol-4-ylmethyl)amino)pyridin-2(1H)-one]	–	–
3000 to 30000 nM	–	–	Cc1noc(C)c1-c1c[nH]c(=O)c(-c2c(C)noc2C)c1 [Example 32, 3,5-bis(3,5-dimethylisoxazol-4-yl)pyridin-2(1H)-one]	–	–
300 to 3000 nM	–	–	Cc1noc(C)c1-c1c[nH]c(=O)c(NCc2nc3ccccc3[nH]2)c1 [Example 38, 3-(((1H-benzo[d]imidazol-2-yl)methyl)amino)-5-(3,5-dimethylisoxazol-4-yl)pyridin-2(1H)-one]	–	–
